Results reported in US20260242340A1, “COMPOUNDS AND METHODS FOR TREATING PROTEIN AGGREGATION DISEASES” (ACELOT, INC., priority 2023, published 2026).

What was measured:
[1] = biological target: T1, TDP-43 cytosolic aggregates (TDP-43-tGFP-U2OS cell line) (Homo sapiens, UniProt Q13148); assay: TDP-43 cytoplasmic aggregation assay; type: cell-based; settings: 10 μM compound; TDP-43-tGFP-U2OS cells, sodium arsenite; lower = more potent
T1 construct: expressed in transfected cells; host or cells: U2OS (recombinant, IPTG-inducible TDP-43 expression)
Description: Recombinant TDP-43-tGFP-U2OS cell line was thawed (2×10^6 cells per T75) and was maintained in DMEM-F12 supplemented with 10% FBS at 37° C. in a humidified 5% CO2 atmosphere. Cells were plated in 96-well plates with a density of 10,000 cells (+/−2000 cells) per well. Cells were incubated with the test compounds and isopropyl β-D-1-thiogalactopyranoside (IPTG) 1 mM to induce TDP43 expression for 24 hours. The assays were carried out in triplicate. Cells were treated with 125-250 μM of sodium arsenite for 120 min and TDP-43 punctae formation was quantified in both cell cytoplasm and cell nucleus, in living cells. The nuclei were stained using Hoechst (0.5 μg/ml) and the fluorescence was measured using a Cell Insight High-Content Bioimager from Thermo Fisher. To detect the Hoechst, the filters used were 380/10 and 460/10 nm for excitation and emission, respectively, and to detect the TDP-43 punctae, the filters were 488/20 and 520/20 nm, respectively. The images were obtained with an objective of 20×. Cell quantification was performed delimitating the region of interest of the nuclei and after quantification the average of each triplicate was performed. For granule quantification the spot detector application from Cell Software delimitated 2 regions of interest, the nuclei and cytosol. This software quantified the average number of granules per nuclei and the average number of granules per cytosol in each well.

Aβ 1-42 = biological target: T2, Aβ 1-42 (Homo sapiens, UniProt P05067); assay: Aβ42 thioflavin T assay; type: biochemical; settings: 50 μM compound, 5 μM Aβ 1-42, ThT RFU at 15 hours; 100% = Aβ + DMSO; read-out: Aβ42 % aggregation at 50 μM
T2 construct: The monomeric form of Aβ 1-42 (rPeptide, A1170-025) film; purchased rPeptide A1170-025
Description: The effect of compounds on fibril formation by Aβ 1-42 was screened using a thioflavin T (ThT) fluorescence assay in a 96-well plate format. The monomeric form of Aβ 1-42 (rPeptide, A1170-025) film was diluted with 10 mM NaOH to form a 1 mg/ml stock solution. This stock solution was then further diluted with cell culture grade water (Cytiva, SH30529.01) and 10×PBS (VWR, 97063-660) to a working concentration of 100 μM in 1×PBS on ice. Compounds were initially dissolved in 100% DMSO (MilliporeSigma, D2650) at room temperature to make a 10 mM stock and stored at −20° C. prior to the experiment. On the day of the experiment, the stock solution was diluted with 1×PBS to a concentration of 500 μM, containing 5% DMSO. The reaction mixture, containing 10 μM ThT […], 5 μM Aβ 1-42, and 1×PBS was prepared in 15 ml Falcon centrifuge tubes (Corning, 352070) and kept on ice during preparation. The reaction mixture was then dispensed into multiple wells of a 96-well half-area, low-binding polyethylene non-treated plate (Corning, 3880) with a clear bottom, at 90 μL per well. To each well, 10 μL of 500 μM compound stock was added, with three replicates per compound. To account for the presence of DMSO, 5% DMSO in 1×PBS was used as the vehicle control. The positive control consisted of 10 μM ThT, 5 μM Aβ 1-42, and 0.5% DMSO in 1×PBS, while the negative control consisted of 10 μM ThT and 0.5% DMSO in 1×PBS. The plates were sealed with polyester sealing tape (VWR, 89134-430) to prevent evaporation and then placed in a plate reader (Molecular Devices SpectraMax ID5) at 37° C. without agitation. ThT fluorescence was measured through the bottom of the plate using 440- and 480-nm excitation and emission filters for 15 hours at 0.5-hour intervals. Each well was scanned at 5 points with a 1.25 mm distance between points. The relative fluorescence unit (RFU) at 15 hours was used to rank the percent of aggregation for all tested compounds and controls.

[2] = biological target: TDP-43 peptide (amino acids 307-319) (Homo sapiens, UniProt Q13148); assay: TDP-43 thioflavin T assay; type: biochemical; settings: ThT RFU at 15 hours; 100% = TDP-43 + DMSO
Description: The effect of compounds on fibril formation by TDP-43 peptide (amino acids 307-319) was screened using a thioflavin T (ThT) fluorescence assay in a 96-well plate format. The monomeric form of TDP-43 307-319 was stored in HFIP at −20° C. in 32 μL vials and then thawed on ice. After thawing a stock aliquot on ice, 16 μL of HFIP and 432 μL 100 mM ammonium acetate was added. This mix was pipetted three times. Three such prepared aliquots were combined to create a master mix. 400 μM of ThT stock was prepared by dissolving 31.8 mg ThT in 10 mL Milli-Q water to make […] stock. The 10 mM ThT stock was then diluted to 400 μM with Milli-Q water and stored at −20° C. until use. 20 μL aliquots of compounds were used as initial starting material. 98 μL of master mix was then added to each well of 96-well plate, and then 2 μL of compounds was added to each well testing a compound. The plate was spun at 4700×rpm to remove bubbles at 4° C., and then the plate measurements were collected. ThT fluorescence was measured through the bottom of the plate using 440- and 480-nm excitation and emission filters for 15 hours at 0.5-hour intervals. Each well was scanned at 5 points with a 1.25 mm distance between points. The relative fluorescence unit (RFU) at 15 hours was used to rank the percent of aggregation for all tested compounds.

T1 sequence (Q13148 whole entry): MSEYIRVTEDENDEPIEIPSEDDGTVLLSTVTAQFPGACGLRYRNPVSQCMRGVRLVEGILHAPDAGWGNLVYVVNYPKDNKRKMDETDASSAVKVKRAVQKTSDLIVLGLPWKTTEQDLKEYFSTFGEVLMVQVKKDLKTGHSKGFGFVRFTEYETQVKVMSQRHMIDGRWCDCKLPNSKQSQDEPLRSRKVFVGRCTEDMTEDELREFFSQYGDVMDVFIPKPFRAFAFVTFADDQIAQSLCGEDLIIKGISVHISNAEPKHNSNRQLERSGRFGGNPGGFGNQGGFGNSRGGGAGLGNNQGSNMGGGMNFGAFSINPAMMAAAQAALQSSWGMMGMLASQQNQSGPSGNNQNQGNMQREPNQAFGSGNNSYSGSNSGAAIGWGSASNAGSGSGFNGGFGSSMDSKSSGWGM
T2 sequence (P05067 672-713 limits assumed): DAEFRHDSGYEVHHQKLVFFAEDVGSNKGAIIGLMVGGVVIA

| Compound | TDP-43 % cytosolic aggregates at 10 μM [1] | activity at 50 µM (Aβ 1-42) | % aggregation TDP-43 ThT at 50 μM TDP-43 [2] |
| --- | --- | --- | --- |
| CC(=O)Nc1ccc2c(c1)CCN(CCc1cccc(Cl)c1)C2 [Compound 1] | 34.5% | 60.9% | 77.4% |
| CC(=O)Nc1ccc2c(c1)CCN(CCc1ccc(F)c(Cl)c1)C2 [Compound 2] | 10.2% | 73.5% | 80.7% |
